Among the test systems are A498; ACHN; EKVX; HCT-15; HT-29; Hs-578T; IGROV-1; MDA-MB-231; RPMI-8226; SK-MEL-5; SNB-19; T47D; U-251; NCI-H23; NCI/ADR-RES; OVCAR-5; HCC 2998.
Experiment in all cases: DTP human tumour cell line panel, 48 h

One may read the GI50 as the concentration that inhibits growth by half.

The structures appear in SMILES notation.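 1) Cells in 96-well plates. 2) Compound, 48 h, 5 concentrations. 3) Linear interpolation between surrounding doses. 4) Unreached endpoint = highest concentration. At the GI50, growth is halved.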 The source made the active and inactive calls. Rule as the data show it: active = GI50 up to about 1.1 µM and inactive = higher.

Regarding `COc1ccc(/C=C2\OC(=O)C(Cl)=C2c2ccc(OC)cc2)cc1`, the GI50 with A498 was > 100 µM (inactive); in the assay with ACHN, > 100 µM (inactive); in the assay on EKVX, > 100 µM (inactive); with HCT-15 it was > 100 µM; in the assay on HT-29, > 100 µM (inactive); with Hs-578T, > 100 µM (inactive). The GI50 with IGROV-1, in the assay on MDA-MB-231, in the assay on RPMI-8226, in the assay with SK-MEL-5, in the assay with SNB-19 and in the assay on T47D was > 100 µM (inactive) throughout. Further, the GI50 in the assay with U-251 was 89.3 µM (inactive).

Regarding `COc1cc(OC)c2c(c1OC)OCC(Cc1ccc(O)cc1)C2=O` (configuration not stated), the GI50 is > 25 µM (inactive) in the assay with A498; > 25 µM (inactive) in the assay with ACHN; > 25 µM in the assay on HCT-15; > 25 µM (inactive) in the assay on HT-29; > 25 µM (inactive) with Hs-578T; > 25 µM (inactive) with IGROV-1. Besides, the GI50 is > 25 µM (inactive) with MDA-MB-231; > 25 µM (inactive) in the assay on NCI-H23; > 25 µM (inactive) with NCI/ADR-RES; > 25 µM (inactive) in the assay with OVCAR-5; > 25 µM (inactive) with RPMI-8226; 19.8 µM (inactive) with SK-MEL-5. Also, the GI50 in the assay with SNB-19 is > 25 µM (inactive); in the assay with T47D, 8.3 µM (inactive); in the assay on U-251, > 25 µM (inactive).

With `Cc1nn(C(=O)Cc2ccccc2)c2c1C(c1ccccc1[N+](=O)[O-])SC(=N)N2` (configuration not stated), the GI50 with A498 is > 100 µM (inactive); with ACHN, > 100 µM (inactive); in the assay with EKVX, > 100 µM (inactive); in the assay on HCC 2998 it was > 100 µM (inactive); in the assay with HCT-15, > 100 µM; in the assay with HT-29, > 100 µM (inactive). Further, the GI50 in the assay with Hs-578T, in the assay on IGROV-1, in the assay on MDA-MB-231, in the assay with NCI-H23, with RPMI-8226 and with SK-MEL-5 was > 100 µM (inactive) in each case. In addition, the GI50 in the assay on SNB-19 and in the assay on T47D was > 100 µM (inactive) each time.

In the case of `COc1ccc(Nc2nc3cc(C(F)(F)F)ccc3nc2C(=O)O)cc1`, the GI50 with A498 is 15.1 µM (inactive); in the assay on ACHN, 28.3 µM (inactive); in the assay with EKVX, 22.9 µM (inactive); with HCC 2998 it was 14.1 µM (inactive); with HCT-15, 16.6 µM; in the assay on HT-29, 30.3 µM (inactive). Besides, the GI50 with Hs-578T is 21.1 µM (inactive); in the assay on IGROV-1, 24 µM (inactive); in the assay with MDA-MB-231 it was 31.6 µM (inactive); in the assay with NCI-H23 it was 14.4 µM (inactive); in the assay on NCI/ADR-RES, 23.1 µM (inactive); in the assay on OVCAR-5, 24.2 µM (inactive). In addition, the GI50 with SK-MEL-5 was 16.7 µM (inactive); with SNB-19, 16 µM (inactive); in the assay on U-251 it was 13 µM (inactive).

As for `O=C1c2ccccc2C(=O)N1CCc1nc(-c2ccccc2)c[nH]1`, the GI50 in the assay on A498 is > 100 µM (inactive); in the assay on ACHN it was > 100 µM (inactive); in the assay on EKVX, > 100 µM (inactive); in the assay with HCC 2998, > 100 µM (inactive); in the assay on HCT-15, > 100 µM; with HT-29, > 100 µM (inactive). The GI50 with Hs-578T, in the assay with IGROV-1, in the assay with MDA-MB-231, in the assay with NCI-H23, with NCI/ADR-RES and in the assay with OVCAR-5 was > 100 µM (inactive) throughout. Moreover, the GI50 in the assay on SK-MEL-5, with SNB-19 and in the assay on U-251 was > 100 µM (inactive) each time.

Consider `CC(=O)N(C)CCc1c[nH]c2ccccc12`, for which the GI50 is > 100 µM (inactive) in the assay on ACHN; > 100 µM (inactive) in the assay on EKVX; > 100 µM in the assay on HCT-15; > 100 µM (inactive) with HT-29; > 100 µM (inactive) in the assay on Hs-578T; > 100 µM (inactive) in the assay on IGROV-1. The GI50 with MDA-MB-231, in the assay on NCI-H23, in the assay on NCI/ADR-RES, in the assay with OVCAR-5, with RPMI-8226 and in the assay on SK-MEL-5 was > 100 µM (inactive) each time. The GI50 in the assay with SNB-19, in the assay with T47D and with U-251 was > 100 µM (inactive) throughout.

As for `Cc1cnc2[nH]c(-c3cccc(Cl)c3)cc(=O)c2c1`, the GI50 in the assay on A498 was 0.0556 µM (active); with ACHN, 0.507 µM (active); with EKVX, > 50.1 µM (inactive); in the assay on HCC 2998 it was 0.101 µM (active); in the assay with HCT-15 it was 0.117 µM; in the assay with HT-29 it was 0.0392 µM (active). Besides, the concentration for 50% growth inhibition (GI50) with Hs-578T is 0.0266 µM (active); with IGROV-1, 0.292 µM (active); with MDA-MB-231, 0.0569 µM (active); with NCI-H23, 0.375 µM (active); with NCI/ADR-RES, 0.054 µM (active); with RPMI-8226 it was < 0.0206 µM (active). Besides, the GI50 with SK-MEL-5 is 0.0461 µM (active); in the assay on SNB-19 it was 0.0769 µM (active); in the assay on U-251 it was 0.0484 µM (active).

Consider `CN(Cc1ccccc1)Cn1ccnc1`, for which the GI50 in the assay on A498 is > 91.6 µM (inactive); in the assay on ACHN, > 100 µM (inactive); in the assay on EKVX, > 85.1 µM (inactive); in the assay with HCT-15 it was 59.4 µM; in the assay with HT-29 it was 29 µM (inactive); in the assay with Hs-578T, > 100 µM (inactive). Further, the GI50 in the assay on IGROV-1 is 36.2 µM (inactive); in the assay with MDA-MB-231 it was > 56 µM (inactive); with NCI-H23, > 85.5 µM (inactive); in the assay on NCI/ADR-RES, > 100 µM (inactive); in the assay with OVCAR-5, > 100 µM (inactive); in the assay with RPMI-8226, 29.2 µM (inactive). The GI50 was 37.9 µM (inactive) in the assay on SK-MEL-5, > 100 µM (inactive) in the assay on SNB-19, > 60.7 µM (inactive) with T47D and > 71 µM (inactive) with U-251.

As to `COc1c(-c2nc3ccc(N4CCN(C)CC4)cc3[nH]2)cc(OC)c2[nH]c(CO)nc12`, the GI50 in the assay on A498 was > 100 µM (inactive); in the assay with ACHN, > 100 µM (inactive); in the assay with EKVX it was > 100 µM (inactive); in the assay with HCT-15 it was > 100 µM; in the assay on HT-29 it was 79.8 µM (inactive); with Hs-578T, > 100 µM (inactive). In addition, the GI50 in the assay on IGROV-1 is > 100 µM (inactive); with MDA-MB-231 it was 74 µM (inactive); in the assay with NCI-H23 it was > 100 µM (inactive); in the assay with NCI/ADR-RES, > 100 µM (inactive); in the assay with OVCAR-5 it was > 100 µM (inactive); in the assay with RPMI-8226, > 100 µM (inactive). In addition, the GI50 with SK-MEL-5 is > 100 µM (inactive); in the assay with SNB-19, 44.4 µM (inactive); with T47D, > 100 µM (inactive); with U-251, 74.8 µM (inactive).

In the case of `O=C1C(NCCF)=C(Cl)C(=O)c2ncccc21`, the GI50 in the assay with A498 was 1.63 µM (inactive); in the assay on ACHN, 1.53 µM (inactive); in the assay on EKVX it was 1.71 µM (inactive); in the assay with HCC 2998, 1.21 µM (inactive); in the assay with HCT-15 it was 0.461 µM; with HT-29, 2.47 µM (inactive). The GI50 was 1.77 µM (inactive) in the assay with Hs-578T; 1.39 µM (inactive) with IGROV-1; 2.19 µM (inactive) in the assay with MDA-MB-231; 0.653 µM (active) with NCI-H23; 2.04 µM (inactive) with OVCAR-5; 0.49 µM (active) in the assay with RPMI-8226. In addition, the GI50 is 0.145 µM (active) with SK-MEL-5, 1.39 µM (inactive) with SNB-19, 2.05 µM (inactive) with T47D and 0.689 µM (active) with U-251.

In the case of `O=C(O)CSc1n[nH]c(=O)[nH]c1=O`, the GI50 in the assay with A498 is > 100 µM (inactive); in the assay on ACHN, > 100 µM (inactive); in the assay on EKVX, > 100 µM (inactive); in the assay with HCT-15, > 100 µM; in the assay on HT-29, > 100 µM (inactive); with Hs-578T, > 100 µM (inactive). Further, the GI50 in the assay on IGROV-1, in the assay on MDA-MB-231, in the assay on NCI-H23, in the assay with NCI/ADR-RES, in the assay with OVCAR-5 and in the assay on RPMI-8226 was > 100 µM (inactive) in each case. The GI50 with SK-MEL-5, in the assay on SNB-19, in the assay on T47D and in the assay with U-251 was > 100 µM (inactive) in each case.

Turning to `C=CCOCn1ccc(N)nc1=O`, the GI50 in the assay on EKVX was > 100 µM (inactive); in the assay with HCC 2998, > 100 µM (inactive); in the assay with HCT-15 it was > 100 µM; with HT-29, > 100 µM (inactive); in the assay on Hs-578T it was > 100 µM (inactive); in the assay with IGROV-1 it was > 100 µM (inactive). In addition, the GI50 with MDA-MB-231, with NCI-H23, with RPMI-8226, in the assay with SK-MEL-5, in the assay with SNB-19 and in the assay with T47D was > 100 µM (inactive) in each case.

With `CCOC(=O)c1nc2ccccc2nc1Oc1cc(OC)cc(OC)c1`, the GI50 was > 100 µM (inactive) in the assay on A498; > 100 µM (inactive) with ACHN; 60.1 µM (inactive) with EKVX; > 100 µM with HCT-15; > 100 µM (inactive) in the assay on HT-29; 27.9 µM (inactive) with Hs-578T. Also, the GI50 in the assay on IGROV-1, in the assay with MDA-MB-231, in the assay with NCI/ADR-RES, with OVCAR-5, with RPMI-8226 and in the assay on SK-MEL-5 was > 100 µM (inactive) in each case. In addition, the GI50 in the assay with SNB-19 was > 100 µM (inactive); with T47D it was > 100 µM (inactive); in the assay on U-251, 78.3 µM (inactive).

Regarding `Cc1ccc(-c2nc(Cc3n[nH]c(-c4ccc(C)cc4)n3)n[nH]2)cc1`, the GI50 is 6.38 µM (inactive) in the assay on ACHN; > 100 µM (inactive) with EKVX; > 100 µM (inactive) with HCC 2998; > 100 µM in the assay with HCT-15; > 100 µM (inactive) with HT-29; > 100 µM (inactive) in the assay with IGROV-1. The GI50 in the assay on MDA-MB-231 was > 100 µM (inactive); with NCI-H23, 18.3 µM (inactive); with NCI/ADR-RES it was 29.6 µM (inactive); in the assay with OVCAR-5 it was > 100 µM (inactive); in the assay on RPMI-8226 it was > 100 µM (inactive); with SK-MEL-5, > 100 µM (inactive). The GI50 in the assay with SNB-19 is 44.2 µM (inactive); with U-251, 3.71 µM (inactive).

(Values after ChEMBL document CHEMBL1201862, “PubChem BioAssay data set” (2004).)
